Assay results taken from US20220144840A1, “HETEROCYCLIC COMPOUNDS AND THEIR USE IN THE TREATMENT OF AMYLOID-RELATED DISEASES” (D.E. Shaw Research, LLC, priority 2019, published 2022).

Each compound was assayed against T1, Beta-Amyloid (1-42), human (Homo sapiens, UniProt P05067) (assay: Thioflavin T (ThT) Beta-Amyloid (1-42) Aggregation Assay). Conditions: 8 μM Beta-Amyloid (1-42), 50 μM ThT dye, 37° C., slope of fluorescence time course; read-out: IC50 for inhibiting amyloids.
T1 construct: Component B: Beta-Amyloid (1-42), human, 0.25 mg×2, lyophilized;; purchased AnaSpec AS-72214
Format: biochemical
Procedure: This assay is used to evaluate the disclosed compounds' activities for inhibiting amyloids.
Thioflavin T (ThT) Beta-Amyloid (1-42) Aggregation Assay Protocol
SensoLyte Thioflavin T Beta-Amyloid (1-42) Aggregation Kit was used (AnaSpec Cat #AS-72214), which includes the following components:
Component A: Assay Buffer (Buffer components are not disclosed);
Component B: Beta-Amyloid (1-42), human, 0.25 mg×2, lyophilized;
Component C: 20 mM ThT solution; and
Component D: 20 mM Phenol Red (Control Inhibitor).
The following buffer was used: 0.005% Tween 20, Assay Buffer from Kit (Component A), and 1% DMSO (final including carryover from compounds).
The final reaction conditions include 8 μM Beta-Amyloid (1-42) and 50 μM ThT dye.
Corning cat #3573, Non-Treated, Black 384-well plate was used as assay plate.
Morin (Sigma Cat #: M4008-2G) was used as control inhibitor.
The reaction procedure is as follows: • 1. Prepare 2×ThT solution in Reaction Buffer; keep in the dark; • 2. Deliver 10 μl/well of 2×ThT solution into the wells; • 3. Prepare 2× Beta-Amyloid solution in Reaction Buffer in polypropylene tube, sonicate for 5 min; keep on ice until use; • 4. Deliver compounds in DMSO into the ThT solution by Acoustic technology (Echo550; nanoliter range), no pre-incubation; • 5. Immediately after compound addition, deliver 10 μL/well of Beta-Amyloid solution into the reaction well, buffer into “No peptide” wells instead; • 6. Immediately start measuring fluorescence intensity in EnVision, set at 37° C., (Ex/Em=450/485 nm) as a time-course measurement every 5 min (30 sec shaking between each read) for 3 hours; • 7. Analyze data by taking slope (signal/time) of linear portion (typically 5 to 45 min) of measurement (therefore time period taken for slope for analysis is different for each target); and • 8. Slope is calculated by using Excel, and curve fits are performed using Prism software.

T1 sequence (P05067 672-713 limits assumed): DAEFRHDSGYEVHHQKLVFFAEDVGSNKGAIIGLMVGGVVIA

Row | Structure (SMILES) | IC50
1 | O=[N+]([O-])c1ccc2nc(SCc3nc4ccc(Cl)cn4c3Br)[nH]c2c1 [Compound 2, 2-[([3-bromo-6-chloroimidazo[1,2-a]pyridin-2-yl]methyl)sulfanyl]-6-nitro-1H-1,3-benzodiazole] | < 200 µM
2 | Cc1ccc2nc(CSc3nc4ccc(Cl)cc4[nH]3)cn2c1 [Compound 5] | < 200 µM
3 | Clc1ccc2nc(SCc3cn4cc(Cl)ccc4n3)[nH]c2c1 [Compound 1, 6-chloro-2-[([6-chloroimidazo[1,2-a]pyridin-2-yl]methyl)sulfanyl]-1H-1,3-benzodiazole] | < 100 µM
4 | CCn1c(SCc2cn3cc(C)ccc3n2)nc2ccccc21 [Compound 4, 1-ethyl-2-[([6-methylimidazo[1,2-a]pyridin-2-yl]methyl)sulfanyl]-1,3-benzodiazole] | < 100 µM
5 | Cn1c(CSc2nc3ncccn3n2)nc2cc(Cl)ccc21 [Compound 3, 5-chloro-1-methyl-2-([[1,2,4]triazolo[1,5-a]pyrimidin-2-ylsulfanyl]methyl)-1,3-benzodiazole] | < 200 µM
